Consider 7 molecules from the supplement of paper PMC11061612.

Common to all, as to experiment: combination Emax (second highest fraction inhibited in the dose matrix, 72 h); higher = more inhibition; extreme values may be limits of the assay
Assay [1] has as its system KNS-62 (Squamous Cell Lung Carcinoma). The method, boiled down:
(§1)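 Cell lines grown in DMEM/F12 or RPMI with 10% FBS were plated in 1536-well plates and held 24 hours at 37°C, 5% CO2 before 72 hours of exposure to two-drug dose matrices, with DMSO typically at 0.2%. CellTiter-Glo 2.0 luminescence gave viability, which was converted to inhibition. Vehicle wells were set to 0 and blank wells to 1. Combination Emax is the second-highest inhibition in the matrix, and Bliss excess is the observed combination effect minus the expected EA + EB − EA·EB, where EA and EB are the single-agent effects.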

For the next assay, the system named is NCI-H2452 (Mesothelioma). In short, it runs like this:
as §1

The subject of the next assay is MG-63 (Osteosarcoma). In short, it runs like this:
as §1

Assay [2] deals with SNU-1 (Gastric Carcinoma). The method, boiled down: as §1
Assay [3] has as its system SW1463 (Colorectal Carcinoma). In short, it runs like this:
as §1

For assay [4], the system named is SUP-HD1 (Hodgkin's Lymphoma). In short, it runs like this: as §1
Assay [5] deals with NCI-H2170 (Squamous Cell Lung Carcinoma). The method, boiled down: as §1
The subject of assay [6] is SBC-5 (Small Cell Lung Carcinoma). The method, boiled down:
as §1

The subject of assay [7] is GRANTA-519 (B-Cell Non-Hodgkin's Lymphoma). In short, it runs like this:
as §1

A further assay has as its system SK-N-DZ (Neuroblastoma). In short, it runs like this:
as §1

Assay [8] relates to CAL-85-1 (Breast Carcinoma). The method, boiled down: as §1
In a further assay the test system is A375 (Melanoma). The method, boiled down: as §1
The test system of assay [9] is HT-1197 (Bladder Carcinoma). The method, boiled down: as §1
Assay [10] deals with NCI-H1648 (Lung Adenocarcinoma). The method, boiled down:
as §1

Assay [11] concerns COR-L105 (Lung Adenocarcinoma). The method, boiled down: as §1
Assay [12] relates to SCC90 (Head and Neck Carcinoma). The method, boiled down: as §1
Assay [13] concerns BT-474 (Breast Carcinoma). The method, boiled down: as §1
The subject of assay [14] is SBC-3 (Small Cell Lung Carcinoma). The method, boiled down: as §1
In assay [15] the test system is OVKATE (Ovarian Carcinoma). In short, it runs like this: as §1
The next assay deals with HT-144 (Melanoma). In short, it runs like this:
as §1

With `Cc1c2c(nn1C)CSCc1cc(n(C)n1)CSc1cc(c3ccccc3c1)OCCCc1c(C(=O)O)n(C)c3c-2c(Cl)ccc13` [AZD5991] + C1CN(CCC1(C(=O)N[C@@H](CCO)C2=CC=C(C=C2)Cl)N)C3=NC=NC4=C3C=CN4 [Capivasertib] (first compound max 1 µM, 7x7, partner max 3 µM), the “combination Emax” value in assay [1] was 0.31; in the assay on NCI-H2452 (Mesothelioma), 0.253; with MG-63 (Osteosarcoma), 0.228; in [2], 0.613; in assay [3] it was 0.216; in assay [4], 0.777. Moreover, the “combination Emax” value in assay [5] came out at 0.415; in assay [6], 0.471; in assay [7], 0.0859; with SK-N-DZ (Neuroblastoma), 0.182; in assay [8], 0.145; in the assay with A375 (Melanoma), 0.2. Also, the “combination Emax” value in assay [9] amounted to 0.419; in assay [10] it was 0.906; in assay [11], 0.248; in assay [12], 0.966; in assay [13] it was 0.746; in assay [14] it was 0.334. Moreover, the “combination Emax” value worked out at 0.273 in assay [15] and 1 in the assay on HT-144 (Melanoma).

On to `CC1(C)CCC(CN2CCN(c3ccc(C(=O)NS(=O)(=O)c4ccc(NCC5CCOCC5)c([N+](=O)[O-])c4)c(Oc4cnc5[nH]ccc5c4)c3)CC2)=C(c2ccc(Cl)cc2)C1` [Venetoclax] + Cc1cc2ncnn2cc1Nc1ncc2c(n1)n(C1CCOCC1)c(=O)n2C [AZD7648] (first compound max 1 µM, 7x7, partner max 10 µM), for which the “combination Emax” value stood at 0.219 in assay [1]; 0.259 with NCI-H2452 (Mesothelioma); 0.201 in the assay on MG-63 (Osteosarcoma); 0.288 in assay [2]; 0.0854 in assay [3]; 0.795 in assay [4]. Moreover, the “combination Emax” value in assay [5] amounted to 0.282; in assay [6] it was 0.212; in assay [7], 0.332; in the assay with SK-N-DZ (Neuroblastoma), 0.399; in assay [8], 0.284; in the assay on A375 (Melanoma) it was 0.233. Besides, the “combination Emax” value in [9] worked out at 0.214; in [10], 0.43; in assay [11], 0.274; in [12] it was 0.351; in [13], 0.197; in [14] it was 0.543. Further, the “combination Emax” value was determined as 0.28 in [15] and 0.222 in the assay on HT-144 (Melanoma).

With `CC(=O)c1c(C)c2cnc(Nc3ccc(N4CCNCC4)cn3)nc2n(C2CCCC2)c1=O` [Palbociclib] + Cc1c2c(nn1C)CSCc1cc(n(C)n1)CSc1cc(c3ccccc3c1)OCCCc1c(C(=O)O)n(C)c3c-2c(Cl)ccc13 [AZD5991] (first compound max 10 µM, 7x7, partner max 1 µM), the “combination Emax” value was found to be 0.329 in [1]; 0.336 in the assay on NCI-H2452 (Mesothelioma); 0.406 with MG-63 (Osteosarcoma); 0.805 in assay [2]; 0.58 in assay [3]; 0.62 in assay [4]. Moreover, the “combination Emax” value in assay [5] stood at 0.389; in assay [6] it was 0.443; in assay [7] it was 0.295; with SK-N-DZ (Neuroblastoma), 0.55; in assay [8], 0.234; in the assay on A375 (Melanoma) it was 0.356. Besides, the “combination Emax” value in assay [9] was found to be 0.247; in assay [10] it was 0.406; in [11] it was 0.207; in assay [12], 0.965; in assay [13], 0.497; in assay [14] it was 0.806. Further, the “combination Emax” value in [15] is 0.208; in the assay with HT-144 (Melanoma), 0.972.

For the molecule `COc1cccc(OCCCN)c1-c1cc(Nc2cnc(C#N)cn2)n[nH]1` [Prexasertib] + CN(C)CCCOc1ccc(-c2ccc3ncc4c(c3c2)n(C2CCOCC2)c(=O)n4C)cn1 [AZD0156] (first compound max 1 µM, 7x7, partner max 1 µM), the “combination Emax” value is 0.659 in assay [1]; 0.644 with NCI-H2452 (Mesothelioma); 0.906 in the assay on MG-63 (Osteosarcoma); 0.842 in assay [2]; 0.716 in [3]; 0.886 in [4]. Moreover, the “combination Emax” value in [5] was 0.868; in assay [6], 0.886; in assay [7], 0.873; with SK-N-DZ (Neuroblastoma), 1; in assay [8], 0.315; in the assay with A375 (Melanoma), 0.851. The “combination Emax” value worked out at 0.571 in assay [9]; 0.768 in assay [10]; 0.435 in [11]; 0.737 in assay [12]; 0.237 in [13]; 0.8 in assay [14]. Further, the entries for the “combination Emax” value (in assay [15]; in the assay with HT-144 (Melanoma)) were 0.275 and 0.744, respectively.

Consider `Cc1c2c(nn1C)CSCc1cc(n(C)n1)CSc1cc(c3ccccc3c1)OCCCc1c(C(=O)O)n(C)c3c-2c(Cl)ccc13` [AZD5991] + CCN(CCO)CCCOc1ccc2c(Nc3cc(CC(=O)Nc4cccc(F)c4)[nH]n3)ncnc2c1 [AZD2811] (first compound max 1 µM, 7x7, partner max 1 µM), for which the “combination Emax” value in assay [1] came to 0.244; in the assay on NCI-H2452 (Mesothelioma), 0.452; in the assay on MG-63 (Osteosarcoma), 0.232; in assay [2] it was 0.551; in [3] it was 0.268; in [4], 0.787. Moreover, the “combination Emax” value amounted to 0.655 in [5]; 0.78 in assay [6]; 0.464 in [7]; 0.293 with SK-N-DZ (Neuroblastoma); 0.267 in [8]; 0.746 in the assay on A375 (Melanoma). Moreover, the “combination Emax” value in [9] was 0.2; in [10], 0.748; in assay [11] it was 0.262; in assay [12], 0.908; in assay [13], 0.442; in assay [14], 0.531. Further, the figures for the “combination Emax” value (in assay [15]; in the assay on HT-144 (Melanoma)) were 0.253 and 0.927, respectively.

As for `CCN(CCO)CCCOc1ccc2c(Nc3cc(CC(=O)Nc4cccc(F)c4)[nH]n3)ncnc2c1` [AZD2811] + C[C@@H]1COCCN1C2=NC(=NC(=C2)C3(CC3)[S@](=N)(=O)C)C4=C5C=CNC5=NC=C4 [AZD6738] (first compound max 1 µM, 7x7, partner max 10 µM), the “combination Emax” value in assay [1] was determined as 0.417; in the assay on NCI-H2452 (Mesothelioma), 0.431; in the assay on MG-63 (Osteosarcoma), 0.677; in [2], 0.73; in assay [3], 0.46; in [4], 0.781. In addition, the “combination Emax” value in assay [5] is 0.803; in assay [6], 0.754; in [7], 0.782; in the assay on SK-N-DZ (Neuroblastoma), 0.96; in assay [8] it was 0.481; in the assay with A375 (Melanoma) it was 0.625. The “combination Emax” value in assay [9] amounted to 0.424; in [10], 0.633; in assay [11], 0.45; in assay [12] it was 0.353; in [13], 0.239; in assay [14], 0.656. Also, the “combination Emax” value was 0.344 in assay [15] and 0.706 in the assay with HT-144 (Melanoma).

With `CC1(C)CCC(CN2CCN(c3ccc(C(=O)NS(=O)(=O)c4ccc(NCC5CCOCC5)c([N+](=O)[O-])c4)c(Oc4cnc5[nH]ccc5c4)c3)CC2)=C(c2ccc(Cl)cc2)C1` [Venetoclax] + C1CN(CCC1(C(=O)N[C@@H](CCO)C2=CC=C(C=C2)Cl)N)C3=NC=NC4=C3C=CN4 [Capivasertib] (first compound max 1 µM, 7x7, partner max 3 µM), the “combination Emax” value came to 0.364 in [1]; 0.272 in the assay with NCI-H2452 (Mesothelioma); 0.317 in the assay with MG-63 (Osteosarcoma); 0.256 in assay [2]; 0.11 in assay [3]; 0.877 in assay [4]. The “combination Emax” value came out at 0.375 in [5]; 0.188 in assay [6]; 0.411 in assay [7]; 0.307 with SK-N-DZ (Neuroblastoma); 0.161 in assay [8]; 0.175 in the assay on A375 (Melanoma). The “combination Emax” value amounted to 0.326 in [9]; 0.45 in assay [10]; 0.23 in [11]; 0.813 in assay [12]; 0.383 in [13]; 0.543 in assay [14]. Further, the “combination Emax” value turned out to be 0.199 in assay [15] and 0.383 with HT-144 (Melanoma).
